From patent publication US6867305B2, “Synthesis of epothilones, intermediates thereto and analogues thereof” (Sloan-Kettering Institute for Cancer Research, priority 1996, dated 2005)

Tests used:
[1] = test system: CCRF-CEM human T-cell acute lymphoblastic leukemia cells; assay: Tumor cell growth inhibition in vitro (XTT, 72 h); assay type: cell-based; conditions: CCRF-CEM; for IC50: 72 h incubation, read-out: IC50
Protocol: (§1) The fresh medium containing each drug was replenished every 7-14 days. […] In each case ,the drug-exposed cells were resuspended in fresh media for a minimum of 4 days before the experiments for the cell-growth inhibition was carried out.
(§2) The cells were cultured at an initial density of 2-5×10^4 cells per ml. They were maintained in a 5% CO2-humidified atmosphere at 37° C. in RPMI mediun 1640 (GIBCO/BRL) containing penicillin (100 units/ml), streptomycin (100 μg/ml) (GIBCO/BRL), and 5% heat-inactivated fetal bovine serum. For solid tumor cells growing in a monolayer (such as MCF-7/Adr), cytotoxicitiy of the drug was determined in 96-well microtiter plates by using the sulforhodamine B method as described by Skehan et al (23) for measuring the cellular protein content. For cells that were grown in suspension (such as CCRF-CEM and its sublines), cytotoxicitiy was measured by using the 2,-3-bis(2-methoxy-4-nitro-5-sulfophenyl)-5carboxanilide)-2H terazodium hydroxide (XTT)-microculture tetrazonium method (24) in duplicate in 96-well microtiter plates. For both methods, the absorbance of each well was measured with a microplate reader (EL-340, Bio-Tek, Burlington, Vt.). Each run entailed six or seven concentrations of the tested drugs. Dose-effect relationship data were analyzed with the median-effect plot (25) by using a previously described computer program (26).

[2] = test system: CCRF-CEM/VBL100 (vinblastine-resistant subline); assay: Tumor cell growth inhibition in vitro (XTT, 72 h); assay type: cell-based, human
Protocol: as §1, §2

CCRF-CEM/VBL = assay: Relative potency in vitro, very highly resistant MDR cells; assay type: cell-based, human
Protocol: as §2

[3] = test system: MX-1 mammary carcinoma xenograft; conditions: MX-1, i.p., ref 19 (Table 4)
[4] = test system: MCF-7/Adr mammary xenograft; assay: Human tumor xenograft in nude mice; assay type: in vivo; conditions: i.p., ref 19 (Table 5)

SMILES | IC50 [1] [nM] | IC50 ([2]; CCRF-CEM/VBL100, 72 h, read-out: IC50) [nM] | cross-resistance (fold of resistance vs parent cell line) ([2]; CCRF-CEM/VBL100 vs CCRF-CEM) [x] | potency relative to dEpoB (times less potent) [1] | potency relative to dEpoB (times less potent) (CCRF-CEM/VBL; MDR CCRF-CEM/VBL cells) [×] | Fold of Resistance (B)/(A) (CCRF-CEM/VBL; [IC50 CCRF-CEM/VBL]/[IC50 CCRF-CEM]) [x] | IC50 (CCRF-CEM/VBL; very highly resistant MDR CCRF-CEM/VBL cells, read-out: CCRF-CEM/VBL IC50) [nM] | Therapeutic Effect Rank Order [3] | Therapeutic Effect Rank Order [4]
CC1=CCC(C(C)=Cc2csc(C)n2)NC(=O)CC(O)C(C)(C)C(=O)C(C)C(O)C(C)CCC1 [15-epi-aza-dEpoB, 12,13,15-desoxy-15(R)-aza-epothilone B] | 119 | 551 | 4.6 | – | – | – | – | – | –
C/C1=C/C[C@@H](/C(C)=C/c2csc(C=O)n2)OC(=O)C[C@H](O)C(C)(C)C(=O)[C@H](C)[C@@H](O)[C@@H](C)CCC1 [21-oxo-dEpoB, 21-oxo-desoxyepothilone B] | 27 | – | – | about 3.7 × | 5.1 | 11.9 | 326 | – | –
CC[C@@]1(O)C(=O)OCc2c1cc1n(c2=O)Cc2cc3ccccc3nc2-1 [Camptothecin, camptothecin, reference compound] | – | – | – | – | – | – | – | dEpoB>Camptothecin>Taxol>VBL, EpoB | dEpoB>Camptothecin>Adriamycin>Taxol
